{
  "source": "patent US20100022526A1",
  "about": "“PYRIDAZINE DERIVATIVES, PROCESSES FOR THEIR PREPARATION AND THEIR USE AS FUNGICIDES” (SYNGENTA CROP PROTECTION, INC., priority 2007, published 2010)",
  "key": {"[1]": {"tested_on": "Alternaria solani", "assay": "Alternaria solani/tomato/Preventive (Action against Alternaria on Tomato)", "assay_type": "in vivo", "settings": "preventive spray, tomato plants cv. Roter Gnom, inoculated two days after application, assessed after 4 days, untreated controls infected over 80%, read-out: inhibit fungal infestation", "experimental": "(§1) Alternaria solani/tomato/Preventive (Action against Alternaria on Tomato) 4 weeks old tomato plants cv. Roter Gnom are treated with the formulated test compound in a spray chamber. Two days after application tomato plants are inoculated by spraying a spore suspension on the test plants. After an incubation period of 4 days at 22° C./18° C. and 95% r. h. in a greenhouse the disease incidence is assessed."}, "[2]": {"tested_on": "Botrytis cinerea", "assay": "Botrytis cinerea/tomato/preventive (Action against Botrytis on Tomato)", "assay_type": "in vivo", "settings": "preventive spray, tomato plants cv. Roter Gnom, inoculated two days after application, assessed after 3 days, untreated controls infected over 80%, read-out: inhibit fungal infestation", "experimental": "as §1, with “Botrytis cinerea/tomato/preventive (Action” for “Alternaria solani/tomato/Preventive (Action”, “against Botrytis” for “against Alternaria”, “of 3” for “of 4”, “at 20°” for “at 22° C./18°”"}, "[3]": {"tested_on": "Puccinia recondita", "assay": "Puccinia recondita/wheat/preventive (Action against Brown Rust on Wheat)", "assay_type": "in vivo", "settings": "preventive spray, wheat plants cv. Arina, inoculated one day after application, assessed 11 days after inoculation, untreated controls infected over 80%, read-out: inhibits fungal infestation", "experimental": "Puccinia recondita/wheat/preventive (Action against Brown Rust on Wheat) 1 week old wheat plants cv. Arina are treated with the formulated test compound in a spray chamber. One day after application wheat plants are inoculated by spraying a spore suspension (1×105 uredospores/ml) on the test plants. After an incubation period of 1 day at 20° C. and 95% r. h. plants are kept for 10 days 20° C./18° C. (day/night) and 60% r.h. in a greenhouse. The disease incidence is assessed 11 days after inoculation."}, "[4]": {"tested_on": "Magnaporthe grisea (Pyricularia oryzae)", "assay": "whole plant or invertebrate", "assay_type": "in vivo", "settings": "read-out: inhibit fungal infestation"}, "[5]": {"tested_on": "Pyrenophora teres (Helminthosporium teres)", "assay": "Pyrenophora teres (Helminthosporium teres)/barley/preventive (Action against Net Blotch on Barley)", "assay_type": "in vivo", "settings": "preventive spray, barley plants cv. Regina, inoculated two days after application, assessed after 4 days, untreated controls infected over 80%, read-out: inhibit fungal infestation", "experimental": "Pyrenophora teres (Helminthosporium teres)/barley/preventive (Action against Net Blotch on Barley) 1-week-old barley plants cv. Regina are treated with the formulated test compound in a spray chamber. Two days after application barley plants are inoculated by spraying a spore suspension (2.6×10^4 conidia/ml) on the test plants. After an incubation period of 4 days at 20° C. and 95% r. h. the disease incidence is assessed."}, "[6]": {"tested_on": "Septoria tritici", "assay": "Sentoria tritici/wheat/Preventive (Action against Septoria Leaf Spot on Wheat)", "assay_type": "in vivo", "settings": "Zymoseptoria tritici, preventive spray, wheat plants cv. Riband, inoculated one day after application, assessed 16-18 days after inoculation, untreated controls infected over 80%, read-out: inhibits fungal infestation", "experimental": "Sentoria tritici/wheat/Preventive (Action against Septoria Leaf Spot on Wheat) 2 weeks old wheat plants cv. Riband are treated with the formulated test compound in a spray chamber. One day after application wheat plants are inoculated by spraying a spore suspension (10^6 conidia/ml) on the test plants. After an incubation period of 1 day at 22° C./21° C. and 95% r. h. plants are kept at 22° C./21° C. and 70% r.h. in a greenhouse. The disease incidence is assessed 16-18 days after inoculation."}, "[7]": {"tested_on": "Uncinula necator", "assay": "Uncinula necator/grape/preventive (Action against Powdery Mildew on Grape)", "assay_type": "in vivo", "settings": "Erysiphe necator, preventive spray, grape seedlings cv. Gutedel, inoculated one day after application, assessed after 7 days, untreated controls infected over 80%, read-out: inhibit fungal infestation", "experimental": "Uncinula necator/grape/preventive (Action against Powdery Mildew on Grape) 5 weeks old grape seedlings cv. Gutedel are treated with the formulated test compound in a spray chamber. One day after application grape plants are inoculated by shaking plants infected with grape powdery mildew above the test plants. After an incubation period of 7 days at 24° C./22° C. and 70% r. h. under a light regime of 14/10 h (light/dark) the disease incidence is assessed."}},
  "data": [
    {"smiles": "COc1nnc(Cl)c(-c2c(F)cc(F)cc2F)c1-c1ccc(Br)cc1", "note": "[I.l. 199, 4-(4-bromophenyl)-6-chloro-3-methoxy-5-(2,4,6-trifluorophenyl)-pyridazine]", "values": [
      {"measurement": "inhibition at 200 ppm", "setting": "[1]", "result": "≥ 80", "unit": "%"},
      {"measurement": "inhibition at 200 ppm", "setting": "[2]", "result": "≥ 80", "unit": "%"},
      {"measurement": "inhibition at 200 ppm", "setting": "[3]", "result": "≥ 80", "unit": "%"},
      {"measurement": "inhibition at 200 ppm", "setting": "[4]", "result": "≥ 80", "unit": "%"},
      {"measurement": "inhibition at 200 ppm", "setting": "[5]", "result": "≥ 80", "unit": "%"},
      {"measurement": "inhibition at 200 ppm", "setting": "[6]", "result": "≥ 80", "unit": "%"},
      {"measurement": "inhibition at 200 ppm", "setting": "[7]", "result": "≥ 80", "unit": "%"},
      {"measurement": "melting point", "result": "113 to 119", "unit": "°C"}
    ]}
  ]
}
